{"source": "paper PMC5218480", "about": "(PLoS ONE, 2017)", "system": "MV-4-11 cells", "assay": "Gene expression microarray analysis (Affymetrix PrimeView) and GSEA", "assay_type": "cell-based, human", "design": "RFU PODN (11730768_x_at) / Fold change /veh PODN (11730768_x_at) / RFU LINC00158 (11744669_a_at) / Fold change /veh LINC00158 (11744669_a_at) / RFU DUSP10 (11751237_a_at) / Fold change /veh DUSP10 (11751237_a_at) / RFU ID3 (11757404_x_at) / Fold change /veh ID3 (11757404_x_at) / RFU PLEKHG5 (11737974_s_at) / Fold change /veh PLEKHG5 (11737974_s_at) / RFU LRRC4B (11730491_at) / Fold change /veh LRRC4B (11730491_at) / RFU GIMAP4 (11747438_a_at) / Fold change /veh GIMAP4 (11747438_a_at) / RFU KRT8 (11758183_x_at) / Fold change /veh KRT8 (11758183_x_at) / RFU CNN1 (11734310_a_at) / Fold change /veh CNN1 (11734310_a_at) / RFU VPS37D (11726825_at) / Fold change /veh VPS37D (11726825_at) / RFU C10orf10 (11716522_x_at) / Fold change /veh C10orf10 (11716522_x_at) / RFU KIR2DL2 /// KIR2DL4 /// KIR2DL5A /// KIR2DL5B /// KIR2DS1 /// KIR2DS2 /// KIR2DS3 /// KIR2DS4 /// KIR3DL3 /// KIR3DL3 /// KIR3DS1 (11738374_at) / Fold change /veh KIR2DL2 /// KIR2DL4 /// KIR2DL5A /// KIR2DL5B /// KIR2DS1 /// KIR2DS2 /// KIR2DS3 /// KIR2DS4 /// KIR3DL3 /// KIR3DL3 /// KIR3DS1 (11738374_at) / RFU C1QL1 (11718748_at) / Fold change /veh C1QL1 (11718748_at) / RFU TMPRSS4 (11747572_a_at) / Fold change /veh TMPRSS4 (11747572_a_at) / RFU HAMP (11756126_x_at) / Fold change /veh HAMP (11756126_x_at) / RFU RNFT2 (11725882_a_at) / Fold change /veh RNFT2 (11725882_a_at) / RFU NR4A2 (11747474_a_at) / Fold change /veh NR4A2 (11747474_a_at) / RFU ABCC12 (11746883_a_at) / Fold change /veh ABCC12 (11746883_a_at) / RFU TMEM136 (11760407_x_at) / Fold change /veh TMEM136 (11760407_x_at) / RFU CLDN22 /// WWC2 (11732394_at) / Fold change /veh CLDN22 /// WWC2 (11732394_at) / RFU HLA-DPB1 (11760878_x_at) / Fold change /veh HLA-DPB1 (11760878_x_at) / RFU SPINT1 (11716480_a_at) / Fold change /veh SPINT1 (11716480_a_at) / RFU GAP43 (11754022_s_at) / Fold change /veh GAP43 (11754022_s_at) / RFU A4GNT (11735810_at) / Fold change /veh A4GNT (11735810_at) / RFU PRB3 (11715151_x_at) / Fold change /veh PRB3 (11715151_x_at) / RFU TUBB4B (11761932_at) / Fold change /veh TUBB4B (11761932_at) / RFU CAPN14 (11732068_a_at) / Fold change /veh CAPN14 (11732068_a_at) / RFU TMCC2 (11721928_a_at) / Fold change /veh TMCC2 (11721928_a_at) / RFU IRGQ (11745062_a_at) / Fold change /veh IRGQ (11745062_a_at) / RFU FAM174B (11720279_a_at) / Fold change /veh FAM174B (11720279_a_at) / RFU TMPRSS4 (11748680_a_at) / Fold change /veh TMPRSS4 (11748680_a_at) / RFU FAM212B (11763350_a_at) / Fold change /veh FAM212B (11763350_a_at) / RFU PLEKHG5 (11743358_a_at) / Fold change /veh PLEKHG5 (11743358_a_at) / RFU ZSCAN30 (11745921_a_at) / Fold change /veh ZSCAN30 (11745921_a_at) / RFU CMKLR1 (11741424_a_at) / Fold change /veh CMKLR1 (11741424_a_at) / RFU LOC101060620 /// MAPK8IP1 (11723275_at) / Fold change /veh LOC101060620 /// MAPK8IP1 (11723275_at) / RFU SPTSSB (11747773_x_at) / Fold change /veh SPTSSB (11747773_x_at) / RFU PRSS12 (11739890_at) / Fold change /veh PRSS12 (11739890_at) / RFU BIN1 (11741810_x_at) / Fold change /veh BIN1 (11741810_x_at) / RFU WNT11 (11732464_a_at) / Fold change /veh WNT11 (11732464_a_at) / RFU C10orf10 (11716521_a_at) / Fold change /veh C10orf10 (11716521_a_at) / RFU C5orf56 (11738089_at) / Fold change /veh C5orf56 (11738089_at) / RFU CYB561 (11721691_x_at) / Fold change /veh CYB561 (11721691_x_at) / RFU ANKRD19P (11752326_a_at) / Fold change /veh ANKRD19P (11752326_a_at) / RFU OR2T12 /// OR2T33 /// OR2T8 (11738714_s_at) / Fold change /veh OR2T12 /// OR2T33 /// OR2T8 (11738714_s_at) / RFU VCAN (11748164_a_at) / Fold change /veh VCAN (11748164_a_at) / RFU JSRP1 (11732532_at) / Fold change /veh JSRP1 (11732532_at) / RFU KRTAP10-11 (11738290_x_at) / Fold change /veh KRTAP10-11 (11738290_x_at) / RFU MYO3A (11730013_a_at) / Fold change /veh MYO3A (11730013_a_at) / RFU EBF3 (11725865_a_at) / Fold change /veh EBF3 (11725865_a_at) / RFU CAMK2N1 (11719241_x_at) / Fold change /veh CAMK2N1 (11719241_x_at) / RFU C5orf56 (11738088_a_at) / Fold change /veh C5orf56 (11738088_a_at) / RFU OLFML3 (11715873_a_at) / Fold change /veh OLFML3 (11715873_a_at) / RFU LOC100653217 /// NTM (11731650_a_at) / Fold change /veh LOC100653217 /// NTM (11731650_a_at) / RFU MAPK11 (11762145_a_at) / Fold change /veh MAPK11 (11762145_a_at) / RFU FIZ1 (11724087_x_at) / Fold change /veh FIZ1 (11724087_x_at) / RFU OASL (11726364_x_at) / Fold change /veh OASL (11726364_x_at) / RFU SOX15 (11748057_x_at) / Fold change /veh SOX15 (11748057_x_at) / RFU CD79A (11719716_a_at) / Fold change /veh CD79A (11719716_a_at) / RFU HIST1H1D (11736915_at) / Fold change /veh HIST1H1D (11736915_at) / RFU CASKIN2 (11723855_a_at) / Fold change /veh CASKIN2 (11723855_a_at) / RFU LOC730098 (11760151_x_at) / Fold change /veh LOC730098 (11760151_x_at) / RFU OR4N2 (11742367_at) / Fold change /veh OR4N2 (11742367_at) / RFU PRRT2 (11749266_a_at) / Fold change /veh PRRT2 (11749266_a_at) / RFU SNX32 (11753110_a_at) / Fold change /veh SNX32 (11753110_a_at) / RFU CDHR5 (11726645_a_at) / Fold change /veh CDHR5 (11726645_a_at) / RFU RCAN1 (11760418_a_at) / Fold change /veh RCAN1 (11760418_a_at) / RFU FAM167A (11723789_a_at) / Fold change /veh FAM167A (11723789_a_at) / RFU FAM26E (11764081_at) / Fold change /veh FAM26E (11764081_at) / RFU ISYNA1 (11749810_s_at) / Fold change /veh ISYNA1 (11749810_s_at) / RFU ACY1 (11761880_at) / Fold change /veh ACY1 (11761880_at) / RFU 11764098_at / Fold change /veh 11764098_at / RFU SAMD14 (11745864_x_at) / Fold change /veh SAMD14 (11745864_x_at) / RFU NPB (11741838_a_at) / Fold change /veh NPB (11741838_a_at) / RFU TMPRSS6 (11731388_a_at) / Fold change /veh TMPRSS6 (11731388_a_at) / RFU KRTAP10-2 (11738614_at) / Fold change /veh KRTAP10-2 (11738614_at) / RFU ARHGAP8 /// PRR5-ARHGAP8 (11727945_x_at) / Fold change /veh ARHGAP8 /// PRR5-ARHGAP8 (11727945_x_at) / RFU KRTAP5-7 /// NADSYN1 (11734609_at) / Fold change /veh KRTAP5-7 /// NADSYN1 (11734609_at) / RFU RASL12 (11751679_a_at) / Fold change /veh RASL12 (11751679_a_at) / RFU CDKN2B (11736163_a_at) / Fold change /veh CDKN2B (11736163_a_at) / RFU PRF1 (11729649_at) / Fold change /veh PRF1 (11729649_at) / RFU, ZNF638 /// ZNF638-IT1 / Fold change vs veh, ZNF638 /// ZNF638-IT1 / RFU, PANK3 / Fold change vs veh, PANK3 / RFU, SH3YL1 / Fold change vs veh, SH3YL1 / RFU, ZEB2 / Fold change vs veh, ZEB2 / RFU, NRIP1 / Fold change vs veh, NRIP1 / RFU, PTTG1IP / Fold change vs veh, PTTG1IP / RFU, CAPN2 / Fold change vs veh, CAPN2 / RFU, MED14 / Fold change vs veh, MED14 / RFU, SNORA58 / Fold change vs veh, SNORA58 / RFU, C1orf63 / Fold change vs veh, C1orf63 / RFU, LRRFIP1 / Fold change vs veh, LRRFIP1 / RFU, NDUFAF7 / Fold change vs veh, NDUFAF7 / RFU, SLC12A2 / Fold change vs veh, SLC12A2 / RFU, IBTK / Fold change vs veh, IBTK / RFU, ESF1 / Fold change vs veh, ESF1 / Fold change vs veh, TMEM50B / RFU, TAOK1 / Fold change vs veh, TAOK1 / RFU, ACBD3 / Fold change vs veh, ACBD3 / RFU, TMA16 / Fold change vs veh, TMA16 / RFU, RWDD3 / Fold change vs veh, RWDD3 / RFU, BCAT1 / Fold change vs veh, BCAT1 / RFU, EDEM3 / Fold change vs veh, EDEM3 / RFU, TMEM33 / Fold change vs veh, TMEM33 / RFU, WDR75 / Fold change vs veh, WDR75 / RFU, AHCTF1 / Fold change vs veh, AHCTF1 / RFU, TFRC / Fold change vs veh, TFRC / RFU, ZDHHC17 / Fold change vs veh, ZDHHC17 / RFU, NOM1 / Fold change vs veh, NOM1 / RFU, ARL8B / Fold change vs veh, ARL8B / RFU, ZBTB11 / Fold change vs veh, ZBTB11 / RFU, TAMM41 / Fold change vs veh, TAMM41 / RFU, KIAA1704 /// LOC100996395 / Fold change vs veh, KIAA1704 /// LOC100996395 / RFU, ING1 / Fold change vs veh, ING1 / RFU, TRMT61B / Fold change vs veh, TRMT61B / RFU, FUBP3 / Fold change vs veh, FUBP3 / RFU, TP53 / Fold change vs veh, TP53 / RFU, TNKS2 / Fold change vs veh, TNKS2 / RFU, ZFP14 / Fold change vs veh, ZFP14 / RFU, ACTR2 / Fold change vs veh, ACTR2 / RFU, PPP3R1 / Fold change vs veh, PPP3R1 / RFU, PIK3R1 / Fold change vs veh, PIK3R1 / RFU, HNRNPA1 / Fold change vs veh, HNRNPA1 / RFU, RNF170 / Fold change vs veh, RNF170 / RFU, ZNF28 / Fold change vs veh, ZNF28 / RFU, RNGTT / Fold change vs veh, RNGTT / RFU, OGT / Fold change vs veh, OGT / RFU, BRD1 / Fold change vs veh, BRD1 / RFU, MARS / Fold change vs veh, MARS / RFU, ZNF655 / Fold change vs veh, ZNF655 / RFU, FAHD1 / Fold change vs veh, FAHD1 / RFU, BDP1 / Fold change vs veh, BDP1 / RFU, LRRCC1 / Fold change vs veh, LRRCC1 / RFU, ARID1A / Fold change vs veh, ARID1A / RFU, ZNF146 / Fold change vs veh, ZNF146 / RFU, ZNF330 / Fold change vs veh, ZNF330 / RFU, GPN3 / Fold change vs veh, GPN3 / RFU, C9orf123 / Fold change vs veh, C9orf123 / RFU, N4BP2L2 / Fold change vs veh, N4BP2L2 / RFU, ARFIP1 / Fold change vs veh, ARFIP1 / RFU, FAM179B / Fold change vs veh, FAM179B / RFU, BCL10 / Fold change vs veh, BCL10 / RFU, UHRF1BP1L / Fold change vs veh, UHRF1BP1L / RFU, BET1 / Fold change vs veh, BET1 / RFU, CNOT2 / Fold change vs veh, CNOT2 / RFU, ZNF268 / Fold change vs veh, ZNF268 / Fold change vs veh, ZNF507 / RFU, DGCR2 / Fold change vs veh, DGCR2 / RFU, WDSUB1 / Fold change vs veh, WDSUB1 / Fold change vs veh, HSP90B1 /// MIR3652 / RFU, ADSS / Fold change vs veh, ADSS / RFU, GK / Fold change vs veh, GK / RFU, ZNF148 / Fold change vs veh, ZNF148 / RFU, TAF9 / Fold change vs veh, TAF9 / RFU, SLC1A5 / Fold change vs veh, SLC1A5 / RFU, SLMO2 / Fold change vs veh, SLMO2 / RFU, ABCC4 / Fold change vs veh, ABCC4 / RFU, LOC101060439 /// RAP1B / Fold change vs veh, LOC101060439 /// RAP1B / RFU, RFX7 / Fold change vs veh, RFX7 / RFU, GTPBP10 / Fold change vs veh, GTPBP10 / RFU, CNEP1R1 / Fold change vs veh, CNEP1R1 / RFU, BIVM-ERCC5 /// ERCC5 / Fold change vs veh, BIVM-ERCC5 /// ERCC5 / RFU, ILF3 / Fold change vs veh, ILF3 / RFU 11762660_at / Fold change /veh 11762660_at / RFU VCAN (11757783_s_at) / Fold change /veh VCAN (11757783_s_at) / RFU DDX43 (11728927_at) / Fold change /veh DDX43 (11728927_at) / RFU KRT8 (11758188_x_at) / Fold change /veh KRT8 (11758188_x_at) / RFU NKD1 (11759106_at) / Fold change /veh NKD1 (11759106_at) / RFU SRD5A1 (11742802_a_at) / Fold change /veh SRD5A1 (11742802_a_at) / RFU TPSAB1 /// TPSB2 (11721975_s_at) / Fold change /veh TPSAB1 /// TPSB2 (11721975_s_at) / RFU GSTM3 (11746129_a_at) / Fold change /veh GSTM3 (11746129_a_at) / RFU IL23R (11737362_x_at) / Fold change /veh IL23R (11737362_x_at) / RFU TMEM51 (11727254_a_at) / Fold change /veh TMEM51 (11727254_a_at) / RFU PIWIL2 (11732686_x_at) / Fold change /veh PIWIL2 (11732686_x_at) / RFU ORM1 (11744905_x_at) / Fold change /veh ORM1 (11744905_x_at) / RFU CCDC152 (11743942_at) / Fold change /veh CCDC152 (11743942_at) / RFU ECM1 (11717891_a_at) / Fold change /veh ECM1 (11717891_a_at) / RFU IL23R (11748794_a_at) / Fold change /veh IL23R (11748794_a_at) / RFU TNFAIP8L3 (11732012_x_at) / Fold change /veh TNFAIP8L3 (11732012_x_at) / RFU MBOAT4 (11741988_at) / Fold change /veh MBOAT4 (11741988_at) / RFU 11764193_at / Fold change /veh 11764193_at / RFU TMEM53 (11763286_at) / Fold change /veh TMEM53 (11763286_at) / RFU MAGEB2 (11727129_at) / Fold change /veh MAGEB2 (11727129_at) / RFU TMEM200A (11744735_a_at) / Fold change /veh TMEM200A (11744735_a_at) / RFU CCDC152 (11751479_a_at) / Fold change /veh CCDC152 (11751479_a_at) / RFU FAM211A (11726209_a_at) / Fold change /veh FAM211A (11726209_a_at) / RFU RGS16 (11746705_a_at) / Fold change /veh RGS16 (11746705_a_at) / RFU VCAN (11755009_s_at) / Fold change /veh VCAN (11755009_s_at) / RFU RHOB (11743442_s_at) / Fold change /veh RHOB (11743442_s_at) / RFU RGS16 (11720943_a_at) / Fold change /veh RGS16 (11720943_a_at) / RFU RGS16 (11720944_at) / Fold change /veh RGS16 (11720944_at) / RFU, VPS4B / Fold change vs veh, VPS4B / RFU, CREB1 / Fold change vs veh, CREB1 / RFU, DNAJC13 / Fold change vs veh, DNAJC13 / RFU, GNAQ / Fold change vs veh, GNAQ / RFU, CDK5R1 / Fold change vs veh, CDK5R1 / RFU, ZRANB3 / Fold change vs veh, ZRANB3 / RFU, CUL4A / Fold change vs veh, CUL4A / RFU, CCNY / Fold change vs veh, CCNY / RFU, UFL1 / Fold change vs veh, UFL1 / RFU, COG3 / Fold change vs veh, COG3 / RFU, DIAPH2 / Fold change vs veh, DIAPH2 / RFU, SKA2 / Fold change vs veh, SKA2 / RFU, AFF3 / Fold change vs veh, AFF3 / RFU, LMF1 / Fold change vs veh, LMF1 / RFU, IPO11 / Fold change vs veh, IPO11 / RFU, DFFB / Fold change vs veh, DFFB / RFU, FOXP1 / Fold change vs veh, FOXP1 / RFU, CARD8 / Fold change vs veh, CARD8 / RFU, STRN3 / Fold change vs veh, STRN3 / RFU, ADK / Fold change vs veh, ADK / RFU, RASSF2 / Fold change vs veh, RASSF2 / RFU, WIPF1 / Fold change vs veh, WIPF1 / RFU, LARP1B / Fold change vs veh, LARP1B / RFU, RASA1 / Fold change vs veh, RASA1 / RFU, RB1 / Fold change vs veh, RB1 / RFU, PPFIA1 / Fold change vs veh, PPFIA1 / RFU, MAT2A / Fold change vs veh, MAT2A / RFU, CCT5 / Fold change vs veh, CCT5 / RFU, WDR92 / Fold change vs veh, WDR92 / RFU, CUX1 / Fold change vs veh, CUX1 / RFU, TTC7A / Fold change vs veh, TTC7A / RFU, TMEM135 / Fold change vs veh, TMEM135 / RFU, DEPTOR / Fold change vs veh, DEPTOR / RFU, CPM / Fold change vs veh, CPM / RFU, DNAJB6 / Fold change vs veh, DNAJB6 / RFU, CACNA2D3 / Fold change vs veh, CACNA2D3 / RFU, DTX4 / Fold change vs veh, DTX4 / RFU, TFCP2 / Fold change vs veh, TFCP2 / RFU, GMCL1 /// GMCL1P1 / Fold change vs veh, GMCL1 /// GMCL1P1 / RFU, AEBP2 / Fold change vs veh, AEBP2 / RFU, SNHG1 /// SNORD22 /// SNORD25 /// SNORD26 /// SNORD27 /// SNORD28 /// SNORD29 /// SNORD31 / Fold change vs veh, SNHG1 /// SNORD22 /// SNORD25 /// SNORD26 /// SNORD27 /// SNORD28 /// SNORD29 /// SNORD31 / Fold change (Aza/veh), C12orf56 (ProbeSet 11735607_a_at) / Fold change (ACY-1035/veh), C12orf56 (ProbeSet 11735607_a_at) / Fold change (Aza/veh), FGFR1OP (ProbeSet 11751329_s_at) / Fold change (ACY-1035/veh), FGFR1OP (ProbeSet 11751329_s_at) / Fold change (Aza/veh), VPS36 (ProbeSet 11739960_a_at) / Fold change (ACY-1035/veh), VPS36 (ProbeSet 11739960_a_at) / RFU SYPL1 (11715823_x_at) / Fold change /veh SYPL1 (11715823_x_at) / RFU IGFBP7 (11715501_s_at) / Fold change /veh IGFBP7 (11715501_s_at) / RFU REEP3 (11722064_at) / Fold change /veh REEP3 (11722064_at) / RFU IGLL1 (11728026_x_at) / Fold change /veh IGLL1 (11728026_x_at): dose or concentration left out as unconfirmed", "settings": "MV-4-11 cells, 48 hours", "data": [{"smiles": "Nc1ccc(-c2cccs2)cc1NC(=O)c1ccc2c(c1)cc(C1CC1)n2CCN1CCOCC1", "note": "[ACY-1035]", "values": [{"measurement": "RFU ECM1 (11717891_a_at)", "value": 18.49, "unit": "RFU"}]}]}
